Reference: a melting point compilation (Tetko et al.; mined from patent text by program, amines drawn as free bases though some values may be those of a salt)

| melting point [°C] | SMILES |
| --- | --- |
| 137 to 141 | Cc1ncsc1C(=O)Nc1ccc(-n2nc(C(F)(F)F)cc2C2CC2)cc1 |
| 116 to 117 | O=C(O)Cc1cc(OCc2cccc(Oc3ccccc3)c2)ccc1Nc1c(Cl)cccc1Cl |
| 146 to 148 | CCOC(=O)C1(C(=O)O)Cc2cc(OC)c(OC)cc2C1 |
| 112 to 113 | O=Cc1cccc2c1OC(c1ccccc1)CC2=O (centres undefined) |
| 52 to 55 | CC(C)C(S)C(=O)NC1(C(=O)NC(Cc2ccc(-c3ccoc3)nc2)C(=O)O)CCCC1 (centres undefined) |
| 169 to 171 | CN1N=C(c2ccc(F)cc2)c2cc(F)ccc2CS1(=O)=O |
| 61 | CCCCCCCCCCCCCCCCOc1cc(OC)c(N)cc1OC |
| 305 to 307 | CCOC(=O)c1cc(O)cc2nc(-c3ccc(O)cc3)oc12 |
| 156 | COc1ccc2c(C(=O)Nc3ccc(CN4CCN(C)CC4)c(C(F)(F)F)c3)nsc2c1 |
| 169 to 170 | CNc1nnc(-c2ccc3occ(-c4cccc(OC(F)(F)F)c4)c3c2)o1 |
| 180 to 182 | CCCCc1nc2ccccc2c(=O)n1Cc1ccc(-c2ccccc2-c2nnn[nH]2)cc1 |
| 100 | CS(=O)(=O)N1CCN([C@@H](CNS(=O)(=O)c2ccc(OCc3ccnc(-c4ccccc4)c3)cc2)C(=O)NO)CC1 |
| 208 to 210 | O=C1Cc2cc(C(=O)N3CCN(CCC(=O)c4ccccc4)CC3)ccc2N1 |
| 92 to 95 | C=CC(=O)Oc1cccc(O)c1O |
| 64 | C=Cc1cc(Br)c(Br)cc1Br |
| 214 to 215 | Cc1noc(NC(=O)N2CCN(c3nccc(-c4ccc(F)c(F)c4)n3)CC2)c1C |
| 104 to 106 | Brc1ccc(OCc2ccc3ccccc3c2)cc1 |
| 183 to 186 | O=C(N1CCc2cccc(O)c2CC1)C(F)(F)F |
| 179 to 183 | COc1ccc2c(c1)c1c(n2Cc2ccccc2)CCCC1C(=O)O (centres undefined) |
| 209 | N#Cc1c(N2CCN(C(=O)c3ccco3)CC2)c2cc(F)ccc2n(Cc2ccccc2)c1=O |
| 80 to 82 | CCCC[C@H](NC(=O)[C@H](CC(C)C)NC(=O)OCc1ccccc1)C(=O)CSC |
| 111 to 113 | CCCC(=O)c1ccc(OCCCC(=O)O)c(Cl)c1Cl |
| 79 to 81 | CCOC(=O)Cn1ncc(-c2ccccc2)c1-c1ccccc1 |
| 136 | CC(C)(C)N(Cc1ccccc1)CC(O)c1ccc(OCc2ccccc2)c2[nH]c(CO)cc12 (centres undefined) |

| melting point [°C] | SMILES |
| --- | --- |
| 282 to 285 | Cn1c(C(F)(F)F)cc(=O)n(-c2cc(N(S(C)(=O)=O)S(C)(=O)=O)c(Cl)cc2F)c1=O |
| 265 to 266 | O=C(O)c1cccc(-c2cc(-c3ccc(Cl)cc3)no2)c1 |
| 150 | O=C(Nc1ccc2[nH]ncc2c1)OC(c1cccc(C(=O)Nc2ccccc2)c1)[C@@H]1CCCCN1 (some centres undefined) |
| 228 | COc1cc2cnc(C(=O)O)cc2cc1OC |
| 194 to 195 | CN(Cc1cc(C(F)(F)F)cc(C(F)(F)F)c1)C1CCN(c2ccc(OC[C@@]3(C)Cn4cc([N+](=O)[O-])nc4O3)cc2)CC1 |
| 312 to 314 | COc1ccc(-c2c(O)c3ccc(Cl)cc3[nH]c2=O)cc1OC |
| 149 to 150 | CCCCOc1c(CO)n(CC(C)(C)C)c(=O)c2cc(F)ccc12 |
| 168 to 171 | CCCCc1ncc(/C=C(\Cc2ccc(OC)cc2)c2nnn[nH]2)n1Cc1ccccc1Cl |
| 148 to 149 | CCCCCCCCCCCCS(=O)(=O)Nc1cc(-c2cc3cc(F)c(F)cc3[nH]2)ccc1OC |
| 61 to 62 | O=C1NC(=O)C(Nc2ccc(CCNCC(O)COc3cccc4ccccc34)cc2)S1 (centres undefined) |
| 136 | CCCC1(c2ccccc2Cl)C(=O)Nc2ccc(OCC)cc21 (centres undefined) |
| 150 to 153 | CCC(C)(C)OC(=O)NC(C)(Cc1c[nH]c2ccccc12)C(=O)NCCc1ccc(Cl)cc1 (centres undefined) |
| 94 | CCOC(=O)COc1ccnc2c(N)cccc12 |
| 137 | CCC1CN(O)CCN1O (centres undefined) |
| 94 to 95 | O=C(O)CCc1cnoc1-c1ccc(-c2ccccc2)cc1 |
| 137 to 138 | CC(=O)NCCC1CNc2ccc3c(c21)CCCO3 (centres undefined) |
| 169 to 170 | CC1=C2CCN(CCC(N)=O)CC2c2ccccc21 (centres undefined) |
| 56 to 67 | CCCn1cnc2c1c(=O)n(CCCCCCOc1ccc(OC)cc1)c(=O)n2C |
| 314 to 316 | O=C1CN(N=Cc2ncc(-c3ccc([N+](=O)[O-])cc3)o2)C(=O)N1 |
| 165 | Nn1c(C(F)(F)F)cc(=O)n(-c2cc([N+](=O)[O-])c(Br)cc2F)c1=O |
| 163 | CC(=O)c1ccncc1OC1SCC(O)C(O)C1O (centres undefined) |
| 113 to 114 | NSc1nccnc1Cl |
| 187 to 188 | CCc1cnc2c(NC(=O)c3c(Cl)cccc3Cl)cccc2c1-n1ccnc1 |
| 167 to 168 | CC12CCC3c4cc(OCC(F)(F)F)c(O)cc4CCC3C1CCC2O (centres undefined) |

| melting point [°C] | SMILES |
| --- | --- |
| 82 to 84 | O=C(Nc1ccc(F)cc1F)Oc1ccccc1 |
| 125 | CCC(=O)Oc1cccc2c1C(=O)c1c(O)cccc1C2C(=O)CC (centres undefined) |
| 93 to 94 | CCc1cccc(CC(=O)O)c1OCCCc1cn(-c2ccc(C(F)(F)F)nn2)nc1C(CC)CC |
| 83 | C(=Cc1ccccc1)COc1ccc2c(c1)OCO2 |
| 145 to 147 | Cc1cc(C#N)ccc1-c1cc(=O)c2c(O)cc(O)c([C@@H]3CCN(C)[C@H]3CO)c2o1 |
| 169 to 170 | COc1cc(OC)cc(N2CCN(C(=S)Nc3cc4c(nc3OC)CCC4)CC2)c1 |
| 149 to 152 | N#Cc1ccc(CCC(=O)c2ccc(C#N)cc2)cc1 |
| 123 to 124 | COc1cc(NC(=O)CN2CCN(c3ncccc3C#N)CC2)cc(OC)c1OC |
| 190 to 191 | Cn1ccc(Nc2n[nH]c3ccc(-c4ncccc4Cl)cc23)n1 |
| 133 to 135 | COc1ccc(C=CC(=O)O)cc1-c1cc2c(cc1OCCCCCC(N)=O)C(C)(C)CCC2(C)C |
| 295 to 297 | CC(=O)N1CCC2(CC1)C(=O)NC(=O)N2c1ccc(C)cc1 |
| 148 to 151 | OCC1(c2ccccc2)CCN(CCC(c2ccccc2)(c2ccccc2)c2ccccn2)CC1 |
| 118 | COc1ccc(C(CSc2ccccc2N)C(=O)O)cc1 (centres undefined) |
| 158 to 159 | CC(=O)NC[C@H]1CN(c2ccc3c(c2)CCC(C)N3)C(=O)O1 (some centres undefined) |
| 197 | CNC(=O)N(OC)c1ccc(Oc2ccc3sncc3c2)c(C(F)(F)F)c1 |
| 258 to 259 | C=C(C)C1CCC2(C(=O)O)CCC3(C)C(CCC4C5(C)CCC(O)C(C)(CO)C5CCC43C)C12 (centres undefined) |
| 160 to 162 | O=C(C1CCN(CCO)CC1)N1CCN2C(=O)OC(c3ccccc3)(c3ccccc3)C2C1 (centres undefined) |
| 224 to 226 | O=C(O)/C=C1/c2ccccc2N(C(=O)c2ccc(NC(=O)c3ccccc3-c3ccccc3)cc2)CCC1(F)F |
| 101 to 103 | CC(C)c1nc(CCOCc2ccccc2)n(C)c1Sc1cc(Cl)cc(Cl)c1 |
| 234 to 236 | CC12CCC(C1)C1(C)Oc3ccc(C4(c5ccc(C(=O)O)cc5)OCCO4)cc3C21C (centres undefined) |
| 164 to 165 | Oc1c2c(nn1-c1ccccn1)CCc1cc(Br)ccc1-2 |
| 220 to 221 | O=C(O)CCC(=O)Nc1cc(C(=O)O)cc([N+](=O)[O-])c1 |
| 102 to 104 | CCOC(=O)c1[nH]c(C)c(C(C)CC)c1C (centres undefined) |
| 81 to 82 | COCCN(C)c1nccc(Oc2ccc(NC(=O)c3cc(F)cc(N4CCCCC4)c3)c3ccccc23)n1 |

| melting point [°C] | SMILES |
| --- | --- |
| 94 to 95 | Cc1c(C)c([N+](=O)[O-])c(C)c2c1OC(C)(C)C2c1ccc(F)cc1 (centres undefined) |
| > 205 | Cc1c(=O)[nH]c(=O)n2cc(C(=O)O)sc12 |
| 158 | O=C(CCO)N[C@H]1CC[C@H](CCN2CCC(c3cccc4c3CCO4)CC2)CC1 |
| 172 to 176 | CCOC(=O)CN(Cc1cc(-n2cc(C)nc2C)ccc1[N+](=O)[O-])C(=O)C(F)(F)F |
| 186 to 189 | CC(C)c1cccc(C(C)C)c1NC(=O)NS(=O)(=O)Oc1c(C(C)C)cccc1C(C)C |
| 206 to 210 | CC(=O)Nc1ccc(Cl)c2c1C(=O)C(NC(C)=O)CN2C(C)=O (centres undefined) |
| 83 to 85 | CCCCc1c(OCOC(=O)C(C)(C)C)n(-c2ccccc2)n(-c2ccccc2)c1=O |
| 232 to 234 | CCn1cc(C(=O)O)c(=O)c2cc(F)c(N3C[C@@H](N)[C@@H](C)C3)c(F)c21 (relative stereo) |
| 151 | CC(=O)C(=O)Nc1ccc(Cl)cc1 |
| 123 to 124 | CCOC(=O)/C=C/c1ccc(C=Cc2nc(-c3ccco3)oc2C)cc1 |
| 125 | CNc1c(Cl)cc(C(=O)NCC2CCN(CCCOC)CC2)c2nccn12 |
| 65 to 66 | COc1ccc(N(C)C(C)=O)cc1C |
| 122 to 124 | C[C@H]1C[C@@]2(N)CN(c3c(F)cc4c(=O)c(C(=O)O)cn5c4c3OC[C@@H]5C)C[C@@H]12 |
| 161 to 162 | CCc1nc(/C=C/c2cccc(O)c2)sc1C |
| > 220 | CCN(C)C1=NS(=O)(=O)c2cc(Cl)ccc2N1 |
| 129 to 133 | CCOCc1c(-c2ccccc2)oc2c(C(=O)NCCCN3CCN(c4ccccc4OC)CC3)cccc2c1=O |
| 229 to 231 | CS(=O)(=O)c1ccc(-c2[nH]c(I)cc2-c2ccc(F)cc2)cc1 |
| 166 to 167 | CC(C)(C)c1ccc2c(c1)OC(C(F)(F)F)C(C(=O)O)=C2 (centres undefined) |
| > 300 | O=C(O)c1cn(C2CC2)c2c(F)c(N3Cc4cccc(O)c4C3)c(F)cc2c1=O |
| 225 to 230 | CCCCn1ncc2cc(/C=C/c3ccc(O)cc3)ccc2c1=O |
| 139 to 141 | CCOC(=O)c1nn(-c2ccccc2)c2c1CSc1ccccc1-2 |
| 135 to 143 | Cc1cc(C)c(-c2nc(Oc3ccccc3)nc(Oc3ccccc3)n2)c(C)c1 |
| 89 | COC(=O)C1(C)Oc2ccc(Cl)cc2C(C)(C)O1 (centres undefined) |

| SMILES | melting point [°C] |
| --- | --- |
| O=C(Cc1ccc(F)cc1)N1CCN(Cc2ccccc2)CC1 | 99 to 101 |
| CCOC(=O)CC1C(=O)N(CC(C)(C)C)c2ccc(Cl)cc2N(c2ccccc2Cl)C1=O (centres undefined) | 152 to 153 |
| COc1ccc(C2=NC(NC(=O)Nc3ccc(C(=O)c4ccccc4)cc3)c3nnc(C)n3-c3ccccc32)cc1 (centres undefined) | 225 |
| OCC(CBr)(CBr)CBr | 67 to 69 |
